{"source": "patent US20110144047A1", "about": "“COMBINED METHOD FOR PREDICTING THE RESPONSE TO AN ANTI-CANCER THERAPY” (DAKO DENMARK A/S, priority 2008, published 2011)", "origin": "cited, not measured here", "tested_on": "murine fibro sarcoma cells derived from TIMP-1 gene-deficient mice", "conditions": "in vitro; previously published by the inventors"}
{"smiles": "COc1cc([C@@H]2c3cc4c(cc3[C@@H](O[C@@H]3O[C@@H]5CO[C@@H](C)O[C@H]5[C@H](O)[C@H]3O)[C@H]3COC(=O)[C@H]23)OCO4)cc(OC)c1O", "note": "[etoposide]", "values": [{"measurement": "sensitivity of TIMP-1 gene-deficient cells compared with wild-type cells expressing TIMP-1", "result": "significantly more sensitive"}]}
